Assays:
[1] = system: Balb/c mice; assay: Murine Delayed-type-Hypersensitivity (DTH) Model; assay type: in vivo; settings: Mus musculus, iv; ear swelling after DNFB challenge; 0.3 mg/kg intravenously once daily; measured within 24 to 48 hours after ear challenge
Procedure: Balb/c mice were sensitized by application of 20 μl of 0.5% of DNFB dissolved in acetone/olive oil to their footpads on day 0 and day 1. On day 5 animals are dosed intravenously with 0.3 mg/kg of test compound (or a negative control). Fifteen minutes later, 10 μl of 0.8% of DNFB dissolved in acetone/olive oil is topically applied externally on the right ear of the animal. As a control, the left ear is treated the same way with vehicle alone (acetone/olive oil).
The compounds (controls and test) are administered once daily until the completion of the study.
Within 24 to 48 hours after ear challenge, animals are anesthetized with isoflurane and the ear swelling is measured using a micrometer. The micrometer calipers are closed around the top portion of the each external ear until resistance from the ear is felt. Usually, the peak of the ear swelling happens around 48 hours after challenge.
Percent inhibition is determined in a similar manner as described for the CII model, above.

[2] = system: Lewis rats; assay: Rat Collagen-induced Arthritis (rCIA) Model; assay type: in vivo; settings: paw swelling, bovine type II collagen-induced arthritis, oral gavage 0.3 mg/kg BID from day 8, day of peak disease, typically day 17
Procedure: Two-month-old, female Lewis rats (Charles River Labs) were anesthetized with 3-5% isoflurane and arthritis was induced by intradermal injection of 0.3 ml (100 μl at three different sites) of an emulsion containing 1.5 mg/ml of bovine type II collagen (CII) (Elastin Products Co. Inc. Owensville, Mo.) in Incomplete Freund's Adjuvant (IFA) (Difco Laboratories, Detroit, Mich.) on day 0 at the base of the tail using a 30 gauge needle. A second injection was given on day 6. Control rats were injected with an equal amount of IFA only.
Test compounds of Formula I are formulated by diluting concentrated ethanol stock solutions with phosphate buffered saline (PBS) and dosed by oral gavage at 0.3 mg/kg twice a day (BID). Dosing was initiated on day 8 and continued to the end of the study, generally day 19 or day 20. Control animals were administered PBS alone.
The volume of both hind paws were measured using a water displacement plethysmometer (Ugo Basile, Biological Research Apparatus, Italy), and the onset of arthritis was indicated by increased paw volume, which appears approximately on day 11 post injection. Both paw volumes and body weights are measured throughout the study every 2-3 days. Nineteen to twenty-one days after CII injection, the rats are euthanized with CO2. Blood is collected by cardiac puncture and serum is saved. Both hind ankles are collected in 10% buffered formalin and saved (they can later be processed for histology).
Percent inhibition values were measured as follows. First, the magnitude of disease effect was calculated by taking the difference in paw swelling between control animals and animals that had not been administered CII (“untreated effect”). Then, the difference is paw swelling between the compound-treated animals and the animals that had not been administered CII was determined (“treated effect”). The difference between the untreated effect and the treated effect is then divided by the […] and multiplied by 100 to arrive at percent inhibition. Percent inhibition reported was from day of “peak” or maximal disease (manifested by maximum paw swelling), typically day 17.

SMILES | inhibition in vivo at 0.3 mg/kg [1] [%] | inhibition in vivo at 0.3 mg/kg [2] [%]
C#CC[C@@H](O)/C=C/C=C/C#CCCCCC(=O)O [Compound 301] | 15 | 11
C#CCC/C=C/C=C/C#C[C@@H](O)CCCC(=O)O [Compound 302] | 24 | 37
O=C(O)CCC[C@H](O)C#C/C=C/C=C/[C@H](O)Cc1ccc(F)cc1 [Compound 303] | 21 | 0
O=C(O)CCC[C@H](O)C#C/C=C/C=C/[C@H](O)CC1CC1 [Compound 304] | 20 | 28
O=C(O)CCC[C@H](O)C#C/C=C/C=C/[C@H](O)CC#Cc1ccc(F)cc1 [Compound 306] | 16 | –
O=C(O)CCC[C@H](O)C#C/C=C/C=C/[C@H](O)CC#Cc1ccc(Cl)c(Cl)c1 [Compound 314] | 28 | 27
O=C(O)CC[C@H](O)C#C/C=C/C=C/[C@H](O)CC1CC1 [Compound 315] | 32 | 7
C#CC[C@@H](O)/C=C/C=C/C#CC(F)(F)CCCC(=O)O [Compound 320] | 35 | 18
C#CC[C@@H](O)/C=C/C=C/[C@@H]1C[C@@H]1[C@@H](O)CCCC(=O)O [Compound 321] | 32 | 10
C#CC[C@@H](O)/C=C/C=C/C#C[C@H](O)CCCC(=O)O [Compound 323] | 46 | 38

Source: patent publication US20110245528A1, “THERAPEUTIC COMPOUNDS” (priority 2008, published 2011)
